Test results from US11103520B2, “Analogs of N-acetlyglucosamine and uses thereof” (THE REGENTS OF THE UNIVERSITY OF CALIFORNIA, priority 2014, dated 2021).
Entries after “also recorded” stand apart in the source; their conditions may differ.

Experiments:
2D2 TCR transgenic mice = assay: EAE in 2D2 TCR transgenic mice, oral GlcNAc after disease onset; format: in vivo, mouse; details: oral 0.25 mg/ml after onset
Text: Day 1 indicates the first day of disease onset. […] Mean clinical scores per group daily were compared by the Mann-Whitney U test.

[1] = tested on: peripheral blood mononuclear cells; details: induced by MS-associated MGAT1 variant; cited from earlier work
C57BL/6 mice = assay: EAE in C57BL/6 mice, oral GlcNAc after disease onset; format: in vivo, mouse
Procedure: FIG. 7A is a graph that plots mean clinical EAE score as a function of days after disease onset for control and treated groups of mice. […] Error bars in FIGS. 7A and 7D represent the means±S.E. of duplicate or greater values unless otherwise stated.
The data plotted in FIG. 7A was obtained from experiments in which EAE was induced in C57BL/6 mice by immunization with MOG 35-55 peptide emulsified in Complete Freund's adjuvant and pertussis toxin. GlcNAc mice were treated orally with GlcNAc by supplementing the drinking water at 0.25 mg/ml starting on the second day after disease onset and continued for the duration of the study and control mice were given drinking water not supplemented with GlcNAc (n=9 per control group, n=7 per GlcNAc group). Day 1 indicates the first day of disease onset. Mice were examined daily for clinical signs of EAE over the next 30 days with the observer blinded to treatment conditions and scored daily as follows: 0, no disease; 1, loss of tail tone; 2, hindlimb weakness; 3, hindlimb paralysis; 4, forelimb weakness or paralysis and hindlimb paralysis; 5, moribund or dead. Mean clinical scores per group daily were compared by the Mann-Whitney U test. […] Error bars in FIGS. 7A and 7D represent the means±S.E. of duplicate or greater values unless otherwise stated.

[2] = tested on: pediatric treatment-resistant inflammatory bowel disease patients; details: oral GlcNAc; remission for approximately 2 years; cited from earlier work
myelin-reactive T cells = details: T cells treated in vitro, transferred into naïve mice; cited from earlier work
human T cells [3] = assay: N-glycan branching (L-PHA) in human T cells; format: cell-based; details: PMA/Ionomycin stimulation, FIG. 9 and FIG. 10
Text: Relative L-PHA (%) in human T cells is plotted as a function of PMA/Ionomycin stimulation and GlcNAc/GlcNAc-diacetate concentrations.
Relative L-PHA (%) in human T cells is plotted as a function of PMA/Ionomycin stimulation and GlcNAc/GlcNAc-monoacetate concentrations.

[4] = cited from earlier work
animals = details: in vivo; cited from earlier work
[5] = tested on: mice immunized with MOG 35-55 peptide; assay: Oral GlcNAc in mice immunized with MOG 35-55 peptide, splenocytes re-stimulated in culture; format: in vivo, mouse
Procedure: The data plotted in FIG. 6A was obtained from experiments in which splenocytes were isolated from mice and cultured in vitro with the indicated concentrations of GlcNAc under resting or activated (1000 ng/ml anti-CD3) conditions for 3 days, stained with L-PHA-FITC in triplicate, and analyzed by FACS. The data plotted in FIGS. 6B-6E were obtained from experiments in which mice were immunized with the indicated amounts of MOG 35-55 peptide emulsified in Complete Freund's adjuvant and treated with GlcNAc at the same time by supplementing their drinking water at 0.25 mg/ml GlcNAc and control mice that were immunized with the indicated amounts of MOG 35-55 peptide but not treated with GlcNAc. […] Although not wishing to be bound by any particular theory, the reduction in CD25^+T cell blasts at the highest antigen concentrations is consistent with the explanation that the reduction is secondary to the observed increase in cell death, consistent with antigen-induced cell death at high antigen stimulation levels.

N-glycan branching = details: in vitro; cited from earlier work
non-obese diabetic mice = details: oral, initiated prior to disease onset; cited from earlier work
human T cells [6] = assay: CD25 and CD69 expression in human T cells stimulated with α-CD3; format: cell-based; details: FIG. 11
Text: FIG. 12A is a graph that plots CD25 expression (%) in human T cells as a function of α-CD3 and GlcNAc/GlcNAc 6-acetate concentrations. FIG. 12B is a graph that plots CD69 expression (%) in human T cells as a function of α-CD3 and GlcNAc/GlcNAc 6-acetate concentrations.

humans = details: supplement use for many years; cited from earlier work
[7] = tested on: C57/BL6 mice immunized with MOG35-55 peptide; assay: Oral treatment, N-glycan branching in mouse T cells in vivo; details: 1 mg/mL in drinking water, five days post immunization, CD4+ blasts
Procedure: Ten-week old female C57/BL6 were immunized with 100 μg of MOG35-55 peptide in a 1:1 mixture with CFA. Groups were non-immunized (n=2), immunized and given drinking water alone (n=3), immunized and given GlcNAc at 1 mg/mL in drinking water (n=3), or immunized and given G-6-A at 1 mg/mL in drinking water (n=3). Splenocytes were harvested five days post immunization, and labeled for FACS analysis. For GlcNAc and G-6-A treated groups, each mouse drank an average of 3 mL per day. Data shown is gated on a blasting region on CD4^+ cells.

mouse T cells = assay: Mouse splenocyte cultures (L-PHA, CD69, CFSE proliferation); format: cell-based; details: splenocytes, anti-CD3 1 μg/mL; FIG. 15
Procedure: FIG. 15A is a graph illustrating splenocytes from C57/BL6 female (n=6, 8-24 weeks old) or male (n=5, 10-13 weeks old) mice after culturing in the presence of anti-CD3 (1 μg/mL). Cells were collected on day 3, and labeled for FACS analysis. FIG. 15B is a series of graphs illustrating in vitro cultures of splenocytes either un-stimulated (resting) or anti-CD3 (1 μg/mL) activated. G-6-A (20 mM) and or GlcNAc (40 mM). Cells were harvested over a three-day time course, and labeled for FACS analysis. FIG. 15C is a graph illustrating in vitro stimulated splenocytes (anti-CD3 at 1 μg/mL) that were cultured for three-days and labeled for FACS analysis of the T cell activation marker CD69 at the time points indicated. […] Splenocytes were labeled with 1 uM of CFSE prior to in vitro anti-CD3 (1 μg/mL) activation for three-days. Overlaying histograms is on gated CD4+ cells.
Cells were collected on day 3, and labeled for FACS analysis. Data shown is on gated CD4^+ cells, and percent changes of L-PHA MFI were normalized to a media only control.
G-6-A (20 mM) and or GlcNAc (40 mM). Cells were harvested over a three-day time course, and labeled for FACS analysis. Data shown is on gated CD4^+ cells, and percent changes of L-PHA MFI were normalized to a media only control.
Data shown is on gated CD4^+ cells. […]

[8] = oral, 0.25 mg/ml in drinking water, 14 days, vs control mice

CC(=O)N[C@@H](C=O)[C@@H](O)[C@H](O)[C@H](O)CO [GlcNAc, 2-(acetylamino)-2-deoxy-D-glucose]
clinical course of EAE, moderate-severe disease (2D2 TCR transgenic mice; 2D2 TCR transgenic mice scored ≤4): attenuates the clinical course of EAE in moderate-severe disease
clinical course of EAE, lethal disease (2D2 TCR transgenic mice; 2D2 TCR transgenic mice with scores of 5): not disease with rapid lethal progression
N-glycan branching deficiency and T cell hyper-proliferation [1]: rescued N-glycan branching deficiency and T cell hyper-proliferation
clinical course of EAE (mean clinical score) (C57BL/6 mice; C57BL/6 mice, oral 0.25 mg/ml in drinking water from second day after onset): attenuates the clinical course of experimental autoimmune encephalomyelitis (EAE)
production of pro-inflammatory cytokines IFN-γ, TNF-α, IL-17, IL-22 (C57BL/6 mice; re-stimulation with MOG 35-55 peptide in vitro): inhibited production of pro-inflammatory cytokines IFN-γ, TNF-α, IL-17, and IL-22
N-glycan branching in T cells (L-PHA staining) (C57BL/6 mice; representative mice at peak of disease): increased N-glycan branching in T cells
CD25+ T cells (C57BL/6 mice; representative mice at peak of disease, vs control mice): significant reduction in CD25^+T cells
children in clinical remission [2]: 8 of 12
EAE after adoptive transfer of treated T cells (myelin-reactive T cells): inhibited EAE when these cells were adoptively transferred into naïve mice
N-glycan branching (Relative L-PHA (%)) (human T cells [3]): increases N-glycan branching to greater effect than N-acetylglucosamine-diacetate compounds; also recorded: N-acetylglucosamine 6-acetate increases N-glycan branching to greater effect than GlcNAc
membrane permeability [4]: low membrane permeability (poor cell entry)
toxicity in chronic animal studies (animals): no associated toxicity
secretion of Th1 (IFN-γ, TNF-α) and Th17 (IL-17, IL-22) cytokines ([5]; oral treatment in vivo, re-stimulation with MOG 35-55 in vitro): inhibited secretion of Th1 cytokines (IFN-γ and TNF-α) and Th17 cytokines (IL-17 and IL-22)
CD4+CD25+FoxP3+ regulatory T cells [5, 8]: promoted development of CD4^+CD25^+FoxP3^+ regulatory T cells
CD25+ T cells upon re-stimulation with MOG 35-55 peptide [5, 8]: reduced CD25^+T cells
N-glycan branching with increasing concentration (N-glycan branching): only enhance N-glycan branching
spontaneous autoimmune diabetes (non-obese diabetic mice): suppress spontaneous autoimmune diabetes
CD25 expression (%) (human T cells [6]): N-acetylglucosamine 6-acetate inhibits CD25 and CD69 expression to greater effect than GlcNAc
CD69 expression (%) (human T cells [6]): N-acetylglucosamine 6-acetate inhibits CD25 and CD69 expression to greater effect than GlcNAc
adverse effects in humans (humans): without reported adverse effects

CC(=O)N[C@H]1C(OC(C)=O)O[C@H](COC(C)=O)[C@@H](OC(C)=O)[C@@H]1OC(C)=O (stereo partly shown) [GlcNAc-tetraacetate, N-acetylglucosamine tetraacetate]
membrane permeability [4]: increased membrane permeability as compared with GlcNAc

CC(=O)N[C@H]1C(O)O[C@H](CO)[C@@H](OC(C)=O)[C@@H]1OC(C)=O (stereo partly shown) [N-acetylglucosamine 3,4 diacetate]
N-glycan branching (Relative L-PHA (%)) (human T cells [3]): GlcNAc increases N-glycan branching to greater effect than N-acetylglucosamine-diacetate compounds

CC(=O)N[C@H]1C(O)O[C@H](COC(C)=O)[C@@H](O)[C@@H]1OC(C)=O (stereo partly shown) [N-acetylglucosamine 3,6 diacetate]
N-glycan branching (Relative L-PHA (%)) (human T cells [3]): GlcNAc increases N-glycan branching to greater effect than N-acetylglucosamine-diacetate compounds

CC(=O)N[C@H]1C(O)O[C@H](CO)[C@@H](O)[C@@H]1OC(C)=O (stereo partly shown) [N-acetylglucosamine 3-acetate]
N-glycan branching (Relative L-PHA (%)) (human T cells [3]): N-acetylglucosamine 6-acetate increases N-glycan branching to greater effect than GlcNAc or N-acetylglucosamine 3-acetate

CC(=O)N[C@H]1C(O)O[C@H](COC(C)=O)[C@@H](OC(C)=O)[C@@H]1O (stereo partly shown) [N-acetylglucosamine 4,6 diacetate]
N-glycan branching (Relative L-PHA (%)) (human T cells [3]): GlcNAc increases N-glycan branching to greater effect than N-acetylglucosamine-diacetate compounds

CC(=O)N[C@H]1C(O)O[C@H](COC(C)=O)[C@@H](O)[C@@H]1O (stereo partly shown) [N-acetylglucosamine 6-acetate]
N-glycan branching in mouse T cells in vivo [7]: increases N-glycan branching in mouse T cells in vivo
N-glycan branching (Relative L-PHA (%)) (human T cells [3]): increases N-glycan branching to greater effect than GlcNAc or N-acetylglucosamine 3-acetate
CD25 expression (%) (human T cells [6]): inhibits CD25 and CD69 expression to greater effect than GlcNAc
CD69 expression (%) (human T cells [6]): inhibits CD25 and CD69 expression to greater effect than GlcNAc
effectiveness in mouse T cells (mouse T cells): more effective than GlcNAc in mouse T cells

N[C@H]1C(O)O[C@H](CO)[C@@H](O)[C@@H]1O (stereo partly shown) [glucosamine]
N-glycan branching with increasing concentration (N-glycan branching): initially increasing but subsequently decreasing N-glycan branching
